Values joined by “and” are separate entries in the source; they are usually repeats but may differ in a detail not shown here. Equal values may be shown once.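 96-well plates; 48 h exposure; 5 concentrations. Endpoints by linear interpolation between flanking doses. Not reached: highest tested concentration assigned. GI50 is the concentration that inhibits growth by half. TGI is the concentration that stops growth completely.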
Key:
Test in all cases: NCI tumour cell line growth inhibition, 48 h
MDA-N = tested on: MDA-N
DLD-1 colon = tested on: DLD-1 colon
M19-MEL melanoma = tested on: M19-MEL melanoma
DMS 114 small cell lung = tested on: DMS 114 small cell lung
LXFL 529 NSCLC = tested on: LXFL 529 NSCLC
RXF-631 renal = tested on: RXF-631 renal
KM20L2 colon = tested on: KM20L2 colon
XF 498 CNS = tested on: XF 498 CNS
HOP-18 NSCLC = tested on: HOP-18 NSCLC
P388/ADR leukemia = tested on: P388/ADR leukemia

| Structure (SMILES) | TGI (MDA-N) | TGI (DLD-1 colon) | TGI (M19-MEL melanoma) | TGI (DMS 114 small cell lung) | TGI (LXFL 529 NSCLC) [µM] | TGI (KM20L2 colon) | TGI (XF 498 CNS) | TGI (HOP-18 NSCLC) [µM] | further results |
| --- | --- | --- | --- | --- | --- | --- | --- | --- | --- |
| Nc1ccc(-c2ccc(Nc3cc(S(=O)(=O)O)c(N)c4c3C(=O)c3ccccc3C4=O)cc2)c(S(=O)(=O)O)c1 | > 100 µM | – | – | – | – | – | – | – | – |
| CCOC(=O)C12CCSC1C1(C#N)C(C#N)=CC2(N=P(c2ccccc2)(c2ccccc2)c2ccccc2)n2c(=O)n(-c3ccccc3)c(=O)n21 (stereo not drawn) | – | > 100 µM | 98.5 µM | 96.6 µM | > 100 | > 100 µM | 78.3 µM | – | TGI (RXF-631 renal): > 100 µM |
| CSc1c(S(C)=O)[nH]c2cc(Br)cc(Br)c12 (stereo not drawn) | – | 51.9 µM | 75.4 µM | – | 48.8 | – | – | 80.5 | – |
| COc1ccc(C(=O)Nc2ccc(S(=O)(=O)NCC(=O)O)cc2)cc1 | – | > 100 µM | > 100 µM | – | > 100 | > 100 µM | > 100 µM | > 100 | TGI (RXF-631 renal): > 100 µM |
| CC1(C(=O)NCCN(CCNC(=O)C2(C)CC3(C)CC(C)(C2)C(=O)NC3=O)CCNC(=O)C2(C)CC3(C)CC(C)(C2)C(=O)NC3=O)CC2(C)CC(C)(C1)C(=O)NC2=O (stereo not drawn) | – | – | > 100 µM | > 100 µM | > 100 | > 100 µM | > 100 µM | > 100 | – |
| c1ccc(CCCNc2nnnc3ccccc23)cc1 | > 100 µM | – | – | – | – | – | – | – | – |
| COc1cc([N+](=O)[O-])c(S(=O)(=O)O)cc1N | > 100 µM | – | – | – | – | – | – | – | – |
| S=c1nc[nH]c2nc[nH]c12 | 636 µM and > 750 µM | > 750 µM | > 734 µM | 385 µM | > 720 | 691 µM | 163 µM | 644 | GI50 (MDA-N): 7.85 µM; TGI (P388/ADR leukemia): 548 µM |
| Cc1ccc(/C=N/NS(=O)(=O)c2ccccc2)cc1 | – | > 100 µM | – | > 100 µM | > 100 | > 100 µM | > 100 µM | > 100 | TGI (RXF-631 renal): > 100 µM |
| Nc1c(S(=O)(=O)O)cc(Nc2cccc(S(N)(=O)=O)c2)c2c1C(=O)c1ccccc1C2=O | 42.8 µM | – | – | – | – | – | – | – | – |
| C/C(=C1/N=C(c2ccccc2)OC1=O)c1ccc(C)cc1 | > 100 µM | – | – | – | – | – | – | – | – |
| COC1=C(C)C(=O)C2=C(C1=O)C(CO)N1C(C#N)C3CC4C(C1C2N1CCOC41)N3C (stereo not drawn) | 0.0156 µM and < 0.0374 µM | 0.836 µM and 5.2 µM | 0.177 µM and 0.11 µM | 0.0348 µM and 0.0203 µM | – | 0.83 µM and 0.104 µM | 0.0183 µM and 0.0285 µM | 0.326 | GI50 (M19-MEL melanoma): 0.0319 µM; GI50 (DMS 114 small cell lung): 0.0141 µM; TGI (P388/ADR leukemia): > 100 µM; TGI (RXF-631 renal): 3.4 µM; GI50 (HOP-18 NSCLC): 0.0484 µM; GI50 (KM20L2 colon): 0.0261 µM; GI50 (XF 498 CNS): 0.00607 µM |
| O=C(O)c1c([N+](=O)[O-])cc(C(F)(F)F)cc1[N+](=O)[O-] | – | – | > 100 µM | – | > 100 | > 100 µM | > 100 µM | – | TGI (RXF-631 renal): > 100 µM |
| Clc1ccccc1C1N2CCCCC2[C@@H]2c3[nH]c4ccccc4c3CCN12 (stereo partly drawn) | – | 37.5 µM | 29.2 µM | 41.6 µM | > 100 | 34.1 µM | 35.4 µM | > 100 | – |
| O=C1c2ccccc2C(=O)c2c(NC(=O)C(Cl)CCl)cccc21 (stereo not drawn) | 24.6 µM | – | – | – | – | – | – | – | – |
| C/C=C/C(=O)[C@@H](O)C(C)C | – | – | > 100 µM | – | > 100 | > 100 µM | – | – | – |
| CN(C)C(=S)/N=c1\ssc(=S)n1-c1ccccc1 | – | 26.9 µM | 30.4 µM | 31.1 µM | 25.1 | 33.2 µM | 27.9 µM | > 100 | – |
| O=C1NC2(CCCC2)/C(=N\O)C12CCCC2 | – | > 100 µM | > 100 µM | > 100 µM | > 100 | – | > 100 µM | > 100 | – |
| Clc1ccccc1-c1nc(-c2ccncc2)no1 | > 100 µM | – | – | – | – | – | – | – | – |
| CN(C)CCNC(=O)c1cccc2cc([N+](=O)[O-])ccc12 | 6.23 µM | 1.55 µM | 0.902 µM | 0.743 µM | 1.83 | 0.722 µM | 1.04 µM | 4.4 | – |

Source: PubChem BioAssay (NCI)
